These results are taken from patent publication US20120184517A1, “TREATMENT OF DISEASES WITH ALTERED SMOOTH MUSCLE CONTRACTILITY” (priority 2009, published 2012).

One data set has as its system rat stroke models. The conditions noted are these: in vivo; cited from earlier work.
Data set [1] deals with maxi-K potassium channels (Homo sapiens, UniProt Q12791). To be noted: 50 nM intracellular Ca2+; cited from earlier work.
The next data set relates to WT tracheal rings. Nature of the data set: Isoproterenol-induced relaxation of WT tracheal rings on a myograph. It is filed as cell-based, murine. To be noted: pre-incubation with β2-AR antagonist 100 nM. The method, then:
(n=4 each). Asterisk (*) indicates P<0.05 versus vehicle (DMSO). […] Cumulative dose-response curves of WT tracheal rings to isoproterenol in the absence and presence of 100 nM iberiotoxin (IbTX), a specific BK channel inhibitor. Values in graphs are means±standard deviation.
In this experiment, murine tracheal smooth muscle cells were acutely isolated and whole cell patch clamped as previously described (Zakharov, S. et al., (2005) J Biol Chem 280, 30882-30887).
To dissect which (or both) β-AR pathways are responsible for the effects, tracheal rings were pre-incubated with either β1-AR antagonist (CGP 20712A; 100 nM) or a β2-AR antagonist (ICI 118551; 100 nM) or vehicle (DMSO). […] To confirm that the isoproterenol-induced relaxation was dependent upon BK channel-induced hyperpolarization, IbTX, a specific inhibitor of the BK channel, was used.

Data set [2] addresses T1, BKCa channel (Homo sapiens, UniProt Q12791). The conditions noted are these: cytoplasmic side; cited from earlier work.
The conditions of data set [3]: not told; cited from earlier work.
The target of data set [4] is T2, BKCa channel in porcine coronary artery cells (Sus scrofa, UniProt O18866).
T2 construct: host or cells: porcine coronary artery cells
The conditions noted are these: cited from earlier work.

For the next data set, the target named is T3, BKCa channel (mSlo) (Mus musculus, UniProt Q08460).
T3 construct: expressed in transfected cells
Nature of the data set: Whole cell patch clamp of HEK293 cells stably transfected with mSlo. It is filed as cell-based, murine. The method, then: FIGS. 4A and 4B show representative current traces from whole cell patches with 5 mM EGTA in patch pipette. […] Voltage steps are shown at the right of each tracing; note the different maximum voltage steps +200 mV (upper) vs. +120 mV (lower). […] FIG. 4C G-V curves were constructed for indicated conditions utilizing tail analysis (Xia, et al., Multiple regulatory sites in large-conductance calcium-activated potassium channels. Nature, 2002. 418(6900):880-4). Solid lines were fitted with Boltzmann function. […] FIGS. 4D and 4E show experiments studying stable mslo HEK293 cells in whole cell configuration with a pipette solution containing 5 mM EGTA (˜0 free Ca^2+).
Current in the diary plot in FIG. 5B represents maximal current in ramp protocol at +70 mV. Holding potential of ramp was −20 mV, with ramp from −30 mV to +180 mV over 500 ms. The G-V curve in FIG. 5C was generated from the tail analysis as described in FIG. 4.
(§1) Current was monitored with a ramp protocol; holding potential −60 mV, with ramp from −80 mV to +150 mV over 500 ms. […] Analysis was performed using tail analysis with normalization as previously described (Xia, et al., Multiple regulatory sites in large-conductance calcium-activated potassium channels. Nature, 2002. 418(6900):880-4). […] Identification of the BKCa channel was determined by conductance and inhibition by iberiotoxin and TEA. […] Murine femoral arterial rings were isolated and placed in a wire myograph. […] The figures shown are representative of 4 similar experiments. Error bars are standard error of the mean (SEM). Asterisk (*) indicates p<0.001.

The subject of another data set is 2K-1C hypertensive rats. The conditions noted are these: hypertensive rat model compared to controls; cited from earlier work.
Data set [5] relates to porcine coronary myocytes. To be noted: 30 μM; cited from earlier work.
In data set [6] the test system is murine femoral arterial rings. In kind it is cell-based. The method, then:
as §1

Another data set relates to tracheal rings. The experiment in a line: Isoproterenol-induced relaxation of tracheal rings from PBS- and OVA-sensitized animals. It is filed as cell-based, murine. The conditions noted are these: no rottlerin. On the procedure: The isoproterenol-induced relaxation of tracheal rings from OVA-sensitized asthmatic animals was also tested. After induction of asthma, tracheal rings were removed and mounted on the myograph. […] At the conclusion of the experiment, each tracheal ring was exposed to methacholine to ensure viability of the ring and equivalent constriction.
After induction of asthma, tracheal rings were removed and mounted on the myograph. […] The ISO-relaxation curve was shifted downward and to the right, with the maximal relaxation response reduced to only ˜25% from more than 60%.

Data set [7] deals with T4, BK currents in tracheal ASM cells (Mus musculus, UniProt Q08460).
T4 construct: The effect of ISO on BK currents in acutely isolated tracheal ASM was also determined; endogenous in cells; host or cells: acutely isolated tracheal airway smooth muscle cells
Nature of the data set: Perforated whole cell voltage clamp of acutely isolated tracheal ASM, outward K+ current. In kind it is cell-based. To be noted: 0.5 μM ISO. The method, then: FIG. 23A is a diary plot of current recorded during repetitive stimulation by depolarizing ramps every 5 seconds to +200 mV from a holding potential of −20 mV. ISO and ISO+IbTX exposure are indicated by bars at bottom of plot. Dashed line indicates average control current.
The effect of ISO on BK currents in acutely isolated tracheal ASM was also determined. ASM cells were studied using perforated whole cell voltage clamp. After obtaining access, outward K^+ current was monitored using a 0.5 second ramp, from a holding potential of −20 mV to +200 mV. […] Under the conditions used, the majority of the outward K^+ current is conducted by the BK channel, as shown by IbTX-blockade (FIGS. 23A and 23B).

The target of data set [8] is T1, BKCa channel. The conditions noted are these: cited from earlier work.
The next data set has as its system dilation to forskolin. The conditions noted are these: cited from earlier work.

T2 sequence (O18866 whole entry): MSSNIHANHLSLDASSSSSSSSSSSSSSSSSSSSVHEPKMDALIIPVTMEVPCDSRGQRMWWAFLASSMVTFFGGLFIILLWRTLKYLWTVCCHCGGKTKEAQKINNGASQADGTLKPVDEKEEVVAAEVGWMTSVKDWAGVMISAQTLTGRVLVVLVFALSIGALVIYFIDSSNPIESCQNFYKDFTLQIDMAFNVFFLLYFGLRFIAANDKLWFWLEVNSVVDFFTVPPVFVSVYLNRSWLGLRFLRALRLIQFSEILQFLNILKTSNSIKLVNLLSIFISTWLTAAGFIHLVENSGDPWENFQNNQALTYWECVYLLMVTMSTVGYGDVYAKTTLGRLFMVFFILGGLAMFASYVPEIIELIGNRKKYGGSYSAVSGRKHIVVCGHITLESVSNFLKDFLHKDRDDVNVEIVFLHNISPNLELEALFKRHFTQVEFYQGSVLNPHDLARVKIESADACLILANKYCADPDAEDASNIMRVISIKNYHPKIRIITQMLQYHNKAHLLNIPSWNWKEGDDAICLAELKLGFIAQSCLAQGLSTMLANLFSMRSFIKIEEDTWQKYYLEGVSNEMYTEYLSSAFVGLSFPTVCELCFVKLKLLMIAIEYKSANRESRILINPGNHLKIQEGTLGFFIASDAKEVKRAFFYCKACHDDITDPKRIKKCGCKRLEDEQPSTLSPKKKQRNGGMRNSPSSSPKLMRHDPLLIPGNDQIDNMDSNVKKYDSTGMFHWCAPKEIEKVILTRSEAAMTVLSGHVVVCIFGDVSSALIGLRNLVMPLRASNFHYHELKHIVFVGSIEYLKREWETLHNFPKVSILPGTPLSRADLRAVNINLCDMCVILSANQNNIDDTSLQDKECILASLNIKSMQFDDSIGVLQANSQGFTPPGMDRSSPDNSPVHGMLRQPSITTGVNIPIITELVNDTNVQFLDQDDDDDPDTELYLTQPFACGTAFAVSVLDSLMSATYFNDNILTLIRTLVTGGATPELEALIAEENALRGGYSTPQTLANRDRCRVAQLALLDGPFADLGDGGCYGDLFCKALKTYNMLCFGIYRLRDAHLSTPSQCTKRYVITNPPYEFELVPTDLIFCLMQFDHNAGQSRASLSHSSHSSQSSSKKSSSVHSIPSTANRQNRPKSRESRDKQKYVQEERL
T1 sequence (Q12791 whole entry): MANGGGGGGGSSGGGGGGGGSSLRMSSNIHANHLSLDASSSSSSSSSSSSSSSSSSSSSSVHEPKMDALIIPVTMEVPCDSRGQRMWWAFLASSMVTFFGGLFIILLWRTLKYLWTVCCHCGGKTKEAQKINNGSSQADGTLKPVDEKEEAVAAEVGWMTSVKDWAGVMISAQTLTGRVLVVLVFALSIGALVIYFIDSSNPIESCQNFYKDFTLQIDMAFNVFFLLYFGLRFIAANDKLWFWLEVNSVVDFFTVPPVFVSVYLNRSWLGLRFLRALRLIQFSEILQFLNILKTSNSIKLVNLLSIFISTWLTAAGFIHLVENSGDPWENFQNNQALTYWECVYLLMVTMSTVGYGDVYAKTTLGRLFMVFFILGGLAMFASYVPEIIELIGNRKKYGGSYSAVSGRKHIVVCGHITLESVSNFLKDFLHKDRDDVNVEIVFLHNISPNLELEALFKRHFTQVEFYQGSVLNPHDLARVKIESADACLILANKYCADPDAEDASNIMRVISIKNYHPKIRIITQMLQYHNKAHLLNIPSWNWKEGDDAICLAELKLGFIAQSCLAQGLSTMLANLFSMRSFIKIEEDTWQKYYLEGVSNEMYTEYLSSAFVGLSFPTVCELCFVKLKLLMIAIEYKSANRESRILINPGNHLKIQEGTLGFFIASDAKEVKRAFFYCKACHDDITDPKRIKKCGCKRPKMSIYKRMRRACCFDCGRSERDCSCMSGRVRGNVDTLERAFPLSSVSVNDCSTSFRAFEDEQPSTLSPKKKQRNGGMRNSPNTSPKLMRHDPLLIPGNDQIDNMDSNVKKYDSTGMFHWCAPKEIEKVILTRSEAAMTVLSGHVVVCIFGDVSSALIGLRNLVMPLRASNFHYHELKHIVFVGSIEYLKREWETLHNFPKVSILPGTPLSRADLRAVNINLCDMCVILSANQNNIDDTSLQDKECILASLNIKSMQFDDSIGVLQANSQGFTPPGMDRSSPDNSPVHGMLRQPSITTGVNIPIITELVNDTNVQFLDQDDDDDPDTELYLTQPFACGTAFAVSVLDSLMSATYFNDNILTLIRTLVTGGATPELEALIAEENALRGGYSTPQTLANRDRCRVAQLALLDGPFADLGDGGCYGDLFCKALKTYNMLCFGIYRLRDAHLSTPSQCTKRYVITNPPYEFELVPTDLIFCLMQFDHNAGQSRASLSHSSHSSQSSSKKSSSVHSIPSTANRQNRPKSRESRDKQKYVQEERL
T3 sequence (Q08460 whole entry): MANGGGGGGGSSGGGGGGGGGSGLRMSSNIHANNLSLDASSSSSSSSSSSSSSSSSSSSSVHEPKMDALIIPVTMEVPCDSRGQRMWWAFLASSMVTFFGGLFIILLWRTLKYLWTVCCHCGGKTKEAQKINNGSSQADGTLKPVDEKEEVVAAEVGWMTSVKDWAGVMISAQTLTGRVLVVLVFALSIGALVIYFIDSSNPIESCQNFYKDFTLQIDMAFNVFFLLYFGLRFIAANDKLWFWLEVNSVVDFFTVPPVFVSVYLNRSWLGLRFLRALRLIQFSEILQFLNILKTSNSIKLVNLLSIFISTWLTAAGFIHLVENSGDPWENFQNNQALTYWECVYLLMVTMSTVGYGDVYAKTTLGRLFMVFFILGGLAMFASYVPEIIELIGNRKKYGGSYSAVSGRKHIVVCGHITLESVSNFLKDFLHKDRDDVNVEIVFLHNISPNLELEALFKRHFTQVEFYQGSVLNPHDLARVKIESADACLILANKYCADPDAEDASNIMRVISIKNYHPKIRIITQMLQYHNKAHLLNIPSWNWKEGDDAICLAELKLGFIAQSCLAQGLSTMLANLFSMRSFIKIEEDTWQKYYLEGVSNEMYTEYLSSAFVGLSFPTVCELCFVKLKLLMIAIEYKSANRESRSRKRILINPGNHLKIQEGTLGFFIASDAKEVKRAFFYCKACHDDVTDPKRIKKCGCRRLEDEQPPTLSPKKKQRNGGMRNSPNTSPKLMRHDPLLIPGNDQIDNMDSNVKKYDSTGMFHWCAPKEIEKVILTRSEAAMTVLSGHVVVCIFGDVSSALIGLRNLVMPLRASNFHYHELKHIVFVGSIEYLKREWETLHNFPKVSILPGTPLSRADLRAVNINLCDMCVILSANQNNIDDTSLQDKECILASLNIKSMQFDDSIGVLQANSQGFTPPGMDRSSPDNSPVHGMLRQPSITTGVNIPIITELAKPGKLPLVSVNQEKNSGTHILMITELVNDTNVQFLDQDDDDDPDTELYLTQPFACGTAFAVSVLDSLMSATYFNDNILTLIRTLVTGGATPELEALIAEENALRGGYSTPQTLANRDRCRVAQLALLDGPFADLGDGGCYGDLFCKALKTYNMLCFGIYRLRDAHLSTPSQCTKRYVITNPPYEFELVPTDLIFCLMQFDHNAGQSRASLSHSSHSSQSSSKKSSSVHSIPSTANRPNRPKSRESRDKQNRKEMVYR
T4 sequence (Q08460 whole entry): as above
T4 sequence (Q8CAE3 whole entry partner): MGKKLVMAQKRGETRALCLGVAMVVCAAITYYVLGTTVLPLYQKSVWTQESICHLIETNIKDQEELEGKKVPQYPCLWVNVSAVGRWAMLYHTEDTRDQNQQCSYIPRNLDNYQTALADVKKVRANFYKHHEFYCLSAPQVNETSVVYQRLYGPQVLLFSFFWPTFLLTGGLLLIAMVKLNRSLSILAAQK
Sequence of maxi-K potassium channels (Q12791 whole entry): as the sequence (Q12791 whole entry) above

With `COc1ccc(Cl)cc1[C@]1(F)C(=O)Nc2cc(C(F)(F)F)ccc21` [BMS-204352], the brain infarct size entry with rat stroke models is “reduction in brain infarct size”. Also, the effect on current result in data set [1] is “almost no effect”.
`Cc1ccc(OCC(O)C(C)NC(C)C)c2c1CCC2` (centres unmarked) [ICI 118551, reference compound]: the isoproterenol dose-response curve entry with WT tracheal rings was “rightward shift in the dose-response curve”.
As to `C=C[C@]1(C)C=C2CC[C@@]3(O)C(C)(C)CC[C@H](O)[C@]3(C)C2CC1` (some centres unmarked) [Maxikdiol], at BKCa channel [2], the “concentration of significant effect” value is 3 to 10 µM and the “threshold of channel activation” value is 1 µM. Also, the membrane permeability entry in [3] is listed as “limited”.
Regarding `O=C(Nc1cccc(C(F)(F)F)c1)Nc1cc(Cl)ccc1O` [NS1608], in [4] (50 μM), the “effect at higher concentrations” value is “inhibitory effect”. In data set [4], the “concentration of maximum activation” value is 5 to 10 µM and the minimum effective concentration is 0.5 µM.
In the case of `O=c1[nH]c2cc(C(F)(F)F)ccc2n1-c1cc(C(F)(F)F)ccc1O` [NS-1619], the “peak K+ current” value on BKCa channel (mSlo) (NS-1619 10 μM extracellular) is given as “activated peak K^+ current”. Besides, in the data set with 2K-1C hypertensive rats, the “efficacy in mediating vascular relaxation” value was “diminished”. Besides, in [5], the “intracellular Ca2+ concentration” value is given as “increase intracellular Ca^2+ concentration”.
As to `CC[N+](CC)(CC)CC` [TEA, tetraethylammonium, reference compound], the “effect on rottlerin induced BKCa activation” value on BKCa channel (mSlo) is listed as “reversibly inhibited”. The “effect on the rottlerin mediated effect” value in data set [6] is on record as “inhibited”.
As to `CC(C)NCC(O)c1ccc(O)c(O)c1` (centres unmarked) [isoproterenol, reference compound], the results for the “maximal relaxation response to isoproterenol” value in the data set with tracheal rings (OVA-sensitized rings) and with tracheal rings (control rings) were around 25% and “more than 60%”, respectively. The “increase of outward K+ current” value in data set [7] is listed as “more than 50%”.
Turning to `CC1(C)C[C@@H](O)[C@]2(C)CC[C@]3(C)C(=CC[C@@H]4[C@@]5(C)CC[C@H](O[C@@H]6O[C@H](C(=O)O)[C@@H](O)[C@H](O)[C@H]6O[C@@H]6O[C@H](CO)[C@H](O)[C@H](O)[C@H]6O)[C@](C)(CO)[C@@H]5CC[C@]43C)[C@@H]2C1` [soyasaponin III], at BKCa channel [8], the BKCa channel activation entry was “activate BKCa channels”.
`C[C@@H]1O[C@@H](O[C@H]2[C@H](O[C@H]3[C@H](O[C@H]4CC[C@@]5(C)[C@@H](CC[C@]6(C)[C@@H]5CC=C5[C@@H]7CC(C)(C)C[C@@H](O)[C@]7(C)CC[C@]56C)[C@@]4(C)CO)O[C@H](C(=O)O)[C@@H](O)[C@@H]3O)O[C@H](CO)[C@H](O)[C@@H]2O)[C@H](O)[C@H](O)[C@H]1O` [soyasaponin I]: the BKCa channel activation entry on BKCa channel [8] is reported as “activate BKCa channels”.
With Ryanodine, the “reduction of dilation to forskolin” value with dilation to forskolin is 80%.
Take dehydrosoyasaponin-I [DHS-I]: at BKCa channel [8], the BKCa channel activation result was “activate BKCa channels”; the “channel activity with α and β subunits co-expressed” value is “increases channel activity”. In addition, the membrane permeability entry in [3] was “poor”.
